Key:
Malme-3M = experiment: Cytotoxicity against human MALME-3M cells assessed as growth level at 10 uM after 48 hrs by SRB assay; assay type: functional
[1] = Cytotoxicity against human OVCAR4 cells assessed as growth level at 10 uM after 48 hrs by SRB assay; assay type: functional, OVCAR-4
SR = experiment: Cytotoxicity against human SR cells assessed as growth inhibition at 10 uM after 48 hrs by SRB assay; assay type: functional; settings: read-out: GI
MDA-MB-231 [2] = experiment: Cytotoxicity against human MDA-MB-231 cells assessed as growth level at 10 uM after 48 hrs by SRB assay; assay type: functional
[3] = Cytotoxicity against human Caki1 cells assessed as growth level at 10 uM after 48 hrs by SRB assay; assay type: functional, CAKI-1
[4] = Cytotoxicity against human IGROV1 cells assessed as growth inhibition at 10 uM after 48 hrs by SRB assay; assay type: functional; settings: IGROV-1, 48 h, read-out: GI
K562 [5] = experiment: Cytotoxicity against human K562 cells assessed as growth level at 10 uM after 48 hrs by SRB assay; assay type: functional
[6] = Cytotoxicity against human OVCAR8 cells assessed as growth level at 10 uM after 48 hrs by SRB assay; assay type: functional, OVCAR-8
[7] = Cytotoxicity against human OVCAR3 cells assessed as growth inhibition at 10 uM after 48 hrs by SRB assay; assay type: functional; settings: OVCAR-3, 48 h, read-out: GI
786-0 [8] = experiment: Cytotoxicity against human 786-0 cells assessed as growth inhibition at 10 uM after 48 hrs by SRB assay; assay type: functional; settings: 786-0, 48 h, read-out: GI
NCI-H460 = experiment: Cytotoxicity against human NCI-H460 cells assessed as growth inhibition at 10 uM after 48 hrs by SRB assay; assay type: functional; settings: NCI-H460, 48 h, read-out: GI
[9] = Cytotoxicity against human SKOV3 cells assessed as growth inhibition at 10 uM after 48 hrs by SRB assay; assay type: functional; settings: SK-OV-3, 48 h, read-out: GI
NCI-H226 = experiment: Cytotoxicity against human NCI-H226 cells assessed as growth inhibition at 10 uM after 48 hrs by SRB assay; assay type: functional; settings: NCI-H226, 48 h, read-out: GI
MDA-MB-435 [10] = experiment: Cytotoxicity against human MDA-MB-435 cells assessed as growth inhibition at 10 uM after 48 hrs by SRB assay; assay type: functional; settings: MDA-MB-435, 48 h, read-out: GI
[11] = Cytotoxicity against human HCT116 cells assessed as growth level at 10 uM after 48 hrs by SRB assay; assay type: functional, HCT-116
[12] = Cytotoxicity against human HCT116 cells assessed as growth inhibition at 10 uM after 48 hrs by SRB assay; assay type: functional; settings: HCT-116, 48 h, read-out: GI
MDA-MB-468 [13] = experiment: Cytotoxicity against human MDA-MB-468 cells assessed as growth level at 10 uM after 48 hrs by SRB assay; assay type: functional
[14] = Cytotoxicity against human SF268 cells assessed as growth level at 10 uM after 48 hrs by SRB assay; assay type: functional, SF-268
U-251 = experiment: Cytotoxicity against human U251 cells assessed as growth level at 10 uM after 48 hrs by SRB assay; assay type: functional
MDA-MB-231 [15] = experiment: Cytotoxicity against human MDA-MB-231 cells assessed as growth inhibition at 10 uM after 48 hrs by SRB assay; assay type: functional; settings: MDA-MB-231, 48 h, read-out: GI
[16] = Cytotoxicity against human SF539 cells assessed as growth inhibition at 10 uM after 48 hrs by SRB assay; assay type: functional; settings: SF-539, 48 h, read-out: GI
786-0 [17] = experiment: Cytotoxicity against human 786-0 cells assessed as growth level at 10 uM after 48 hrs by SRB assay; assay type: functional
[18] = Cytotoxicity against human OVCAR3 cells assessed as growth level at 10 uM after 48 hrs by SRB assay; assay type: functional, OVCAR-3
[19] = Cytotoxicity against human LOXIMVI cells assessed as growth inhibition at 10 uM after 48 hrs by SRB assay; assay type: functional; settings: LOX IMVI, read-out: GI
KM12 = experiment: Cytotoxicity against human KM12 cells assessed as growth level at 10 uM after 48 hrs by SRB assay; assay type: functional
EKVX [20] = experiment: Cytotoxicity against human EKVX cells assessed as growth level at 10 uM after 48 hrs by SRB assay; assay type: functional
MDA-MB-468 [21] = experiment: Cytotoxicity against human MDA-MB-468 cells assessed as growth inhibition at 10 uM after 48 hrs by SRB assay; assay type: functional; settings: MDA-MB-468, 48 h, read-out: GI
[22] = Cytotoxicity against human NCI-ADR-RES cells assessed as growth level at 10 uM after 48 hrs by SRB assay; assay type: functional
[23] = Cytotoxicity against human HOP92 cells assessed as growth inhibition at 10 uM after 48 hrs by SRB assay; assay type: functional; settings: HOP-92, 48 h, read-out: GI
ACHN = experiment: Cytotoxicity against human ACHN cells assessed as growth level at 10 uM after 48 hrs by SRB assay; assay type: functional
[24] = Cytotoxicity against human OVCAR8 cells assessed as growth inhibition at 10 uM after 48 hrs by SRB assay; assay type: functional; settings: OVCAR-8, 48 h, read-out: GI
A549 = experiment: Cytotoxicity against human A549 cells assessed as growth level at 10 uM after 48 hrs by SRB assay; assay type: functional
[25] = Cytotoxicity against human TK10 cells assessed as growth level at 10 uM after 48 hrs by SRB assay; assay type: functional, TK-10
A498 = experiment: Cytotoxicity against human A498 cells assessed as growth level at 10 uM after 48 hrs by SRB assay; assay type: functional
SK-MEL-28 = experiment: Cytotoxicity against human SK-MEL-28 cells assessed as growth inhibition at 10 uM after 48 hrs by SRB assay; assay type: functional; settings: SK-MEL-28, 48 h, read-out: GI
[26] = Cytotoxicity against human SF295 cells assessed as growth level at 10 uM after 48 hrs by SRB assay; assay type: functional, SF-295
EKVX [27] = experiment: Cytotoxicity against human EKVX cells assessed as growth inhibition at 10 uM after 48 hrs by SRB assay; assay type: functional; settings: read-out: GI
[28] = Cytotoxicity against human HCT15 cells assessed as growth inhibition at 10 uM after 48 hrs by SRB assay; assay type: functional; settings: HCT-15, 48 h, read-out: GI
K562 [29] = experiment: Cytotoxicity against human K562 cells assessed as growth inhibition at 10 uM after 48 hrs by SRB assay; assay type: functional; settings: K562, 48 h, read-out: GI
MDA-MB-435 [30] = experiment: Cytotoxicity against human MDA-MB-435 cells assessed as growth level at 10 uM after 48 hrs by SRB assay; assay type: functional
[31] = Cytotoxicity against human SW620 cells assessed as growth inhibition at 10 uM after 48 hrs by SRB assay; assay type: functional; settings: SW-620, 48 h, read-out: GI
[32] = Cytotoxicity against human UACC257 cells assessed as growth level at 10 uM after 48 hrs by SRB assay; assay type: functional, UACC-257
[33] = Cytotoxicity against human MOLT4 cells assessed as growth inhibition at 10 uM after 48 hrs by SRB assay; assay type: functional; settings: MOLT-4, 48 h, read-out: GI
[34] = Cytotoxicity against human SNB19 cells assessed as growth inhibition at 10 uM after 48 hrs by SRB assay; assay type: functional; settings: SNB-19, 48 h, read-out: GI

Structure (SMILES): C=C1CC[C@@H]2[C@](C)(COC(C)=O)[C@H](OC(C)=O)CC[C@@]2(C)[C@@H]1CC(NCc1ccc(F)cc1)C1=CCOC1=O (mixture of isomers)
- Activity (Malme-3M): 65.1%
- Activity [1]: 30.87%
- inhibition of growth at 10 µM (SR): 92.3%
- Activity (MDA-MB-231 [2]): 60.86%
- Activity [3]: 45.98%
- inhibition of growth at 10 µM [4]: 51.6%
- Activity (K562 [5]): 18.84%
- Activity [6]: 18.62%
- inhibition of growth at 10 µM [7]: 76.3%
- inhibition of growth at 10 µM (786-0 [8]): 13.2%
- inhibition of growth at 10 µM (NCI-H460): 44.8%
- inhibition of growth at 10 µM [9]: 5.68%
- inhibition of growth at 10 µM (NCI-H226): 59.9%
- inhibition of growth at 10 µM (MDA-MB-435 [10]): 67.3%
- Activity [11]: 33.73%
- inhibition of growth at 10 µM [12]: 66.3%
- Activity (MDA-MB-468 [13]): 27.52%
- Activity [14]: 62.59%
- Activity (U-251): 48.01%
- inhibition of growth at 10 µM (MDA-MB-231 [15]): 39.1%
- inhibition of growth at 10 µM [16]: 35.5%
- Activity (786-0 [17]): 86.82%
- Activity [18]: 23.7%
- inhibition of growth at 10 µM [19]: 90.7%
- Activity (KM12): 46.48%
- Activity (EKVX [20]): 50.01%
- inhibition of growth at 10 µM (MDA-MB-468 [21]): 72.5%
- Activity [22]: 28.29%
- inhibition of growth at 10 µM [23]: 81.2%
- Activity (ACHN): 50.93%
- inhibition of growth at 10 µM [24]: 81.4%
- Activity (A549): 57.9%
- Activity [25]: 66.64%
- Activity (A498): 51.71%
- inhibition of growth at 10 µM (SK-MEL-28): 22.2%
- Activity [26]: 96.13%
- inhibition of growth at 10 µM (EKVX [27]): 50%
- inhibition of growth at 10 µM [28]: 63%
- inhibition of growth at 10 µM (K562 [29]): 81.2%
- Activity (MDA-MB-435 [30]): 32.73%
- inhibition of growth at 10 µM [31]: 68%
- Activity [32]: 45.84%
- inhibition of growth at 10 µM [33]: 0.37%

Structure (SMILES): C=C1CC[C@@H]2[C@](C)(COC(C)=O)[C@H](OC(C)=O)CC[C@@]2(C)[C@@H]1CC(NCc1ccccc1)C1=CCOC1=O (mixture of isomers)
- Activity (Malme-3M): 77.12%
- Activity [1]: 35.88%
- inhibition of growth at 10 µM (SR): 79.1%
- Activity (MDA-MB-231 [2]): 64.69%
- Activity [3]: 49.62%
- inhibition of growth at 10 µM [4]: 37.1%
- inhibition of growth at 10 µM [34]: 31.8%
- Activity (K562 [5]): 24.65%
- Activity [6]: 28.22%
- inhibition of growth at 10 µM [7]: 68.2%
- inhibition of growth at 10 µM (786-0 [8]): 28.6%
- inhibition of growth at 10 µM (NCI-H460): 51.6%
- inhibition of growth at 10 µM [9]: 20.8%
- inhibition of growth at 10 µM (NCI-H226): 88.6%
- inhibition of growth at 10 µM (MDA-MB-435 [10]): 72.1%
- Activity [11]: 42.32%
- inhibition of growth at 10 µM [12]: 57.7%
- Activity (MDA-MB-468 [13]): 22.86%
- Activity [14]: 62.15%
- Activity (U-251): 47.58%
- inhibition of growth at 10 µM (MDA-MB-231 [15]): 35.3%
- inhibition of growth at 10 µM [16]: 20.5%
- Activity (786-0 [17]): 71.35%
- Activity [18]: 31.82%
- inhibition of growth at 10 µM [19]: 55.4%
- Activity (KM12): 39.08%
- Activity (EKVX [20]): 53.91%
- inhibition of growth at 10 µM (MDA-MB-468 [21]): 77.1%
- Activity [22]: 23.47%
- inhibition of growth at 10 µM [23]: 58.3%
- Activity (ACHN): 46.39%
- inhibition of growth at 10 µM [24]: 71.8%
- Activity (A549): 49.21%
- Activity (A498): 56.22%
- inhibition of growth at 10 µM (SK-MEL-28): 31.4%
- Activity [26]: 63.88%
- inhibition of growth at 10 µM (EKVX [27]): 46.1%
- inhibition of growth at 10 µM [28]: 59%
- inhibition of growth at 10 µM (K562 [29]): 75.3%
- Activity (MDA-MB-435 [30]): 27.9%
- inhibition of growth at 10 µM [31]: 52.7%
- Activity [32]: 32.81%
- inhibition of growth at 10 µM [33]: 3.86%

Reference: ChEMBL document CHEMBL3734705, “Synthesis and in vitro cytotoxicity of novel C-12 substituted-14-deoxy-andrographolide derivatives as potent anti-cancer agents” (2015)
